# US11779548B2, “Arylfluorosulfate compounds and methods” (THE SCRIPPS RESEARCH INSTITUTE, priority 2014, dated 2023)
# pIC50: −log10 of the molar value.
# Key:
# [1] = test system: microtubule network in HT-29 cells; experiment: Immunofluorescence microscopy of HT-29 microtubule disruption; type: cell-based; conditions: HT-29, 24 h, anti-tubulin-FITC, confocal imaging; 25F 1 μM and 0.1 μM
# Method: To assess the mechanism of fluorosulfate 25F, HT-29 cells were treated with 25F followed by staining with anti-tubulin-FITC antibody. […] In fact, glucuronidation of 25 on the phenol group by uridine 5-diphosphoglucuronosyl transferases (UGTs) has been previously identified as a mechanism of resistance evolved by HT-29 colon cancer cells and hepatocellular cancer cells.
# After incubation at 37° C. for 24 hours, cells were treated with media containing DMSO (0.2%), 25 (1 μM, 0.1 μM) or 25F (1 μM, 0.1 μM, 0.01 μM) for 24 hours. Then cells were gently washed in PBS, fixed for 20 min with 4% paraformaldehyde in PBS and permeabilised in 0.5% Triton X-100™ surfactant. Following washes in PBS containing 0.1% Tween™ (PBST) surfactant, cells were blocked in 5% bovine serum albumin diluted in PBST. Then cells were incubated with mouse monoclonal anti-tublin-FITC antibody (DM1A) (1:100 in PBS) for 3 hours. After washing with PBST, cells were incubated with DAPI (1:2000) for 30 min and mounted in PBS for confocal analysis. Images were captured by Nikon™ spinning disk confocal microscopy. All images in each experiment were collected on the same day using identical parameters.
# [2] = test system: A549 cells; experiment: Two-dose cell viability assay (CellTiter-Glo); conditions: A549, 20 μM and 500 nM, 72 h
# Method: (§1) The cytotoxicity of fluorosulfation products 1F to 39F and their phenol precursors was assessed in cancer cell lines using a double-dose cell viability test. […] The difference between the cytotoxicity of a fluorosulfation product and that of its phenol precursor reflects the changes in compounds' anti-cancer activity after the SuFEx-based derivatization (FIG. 3, A). […] The corresponding phosphate of combretastatin A4 is a tumor vascular targeting agent, and the water-soluble prodrug of combretastatin A4.
# (§2) 6C. Two-Dose Cell Viability Assay to Compare the Cytotoxicities of Fluorosulfation Products (1F to 39F) and Phenol Parents (1 to 39).
# (§3) MCF-7 and A549 cancer cells were inoculated into 96-well plates in 100 μL medium at a plating density of 5,000 cells/well. After cell inoculation, the plates were incubated at 37° C. and 5% CO2. After 24 hours, all wells were refreshed with medium containing DMSO (0.2%, as vehicle control), phenols (20 μM or 500 nM) or in situ generated fluorosulfation products (20 μM or 500 nM). Then cancer cells were maintained at 37° C. and 5% CO2 for 72 hours before cell viability (Vcontrol, Vphenol and Vfluorosulfation product) were evaluated by CellTiter-Glo™ Assay following manual of protocol. […] The cytotoxicity difference between a fluorosulfation product and its phenol precursor is quantified as (Vphenol/Vcontrol×100%)−(Vfluorosulfation product/Vcontrol×100%).
# [3] = test system: MCF-7 cells; experiment: Two-dose cell viability assay (CellTiter-Glo); conditions: MCF-7, 500 nM, 72 h, in situ generated product
# Method: as §1, §2, §3
# [4] = test system: SKBR3 cells; experiment: Cancer cell growth inhibition assay; type: cell-based; conditions: Homo sapiens, SK-BR-3, 72 h, read-out: IC50 SKBR3 Cells
# Method: (§4) Experimental compounds were dissolved in DMSO at 500-fold of the desired final maximum test concentration. Then it was 10-fold serially diluted to other concentrations in DMSO. All aliquots were frozen prior to use.
# (§5) Another same plate of cells was inoculated for the evaluation of time 0. […] And another plate of cancer cells was refreshed with medium containing either DMSO (0.2%, as control) or test compounds (1 or 1F) in seven different concentrations from 20 μM. After incubation for 72 hours, cell viabilities were evaluated by CellTiter-Glo™ assay to obtain Vcontrol and Vtest. The growth inhibition percentage is defined as (Vtest−V0)/(Vcontrol−V0)×100%. IC50 values were obtained from dose-response curves. All tests included 3 repeats.
# as §5, with “Then the viabilities of cancer cells for time 0 were evaluated by CellTiter-Glo™ assay to obtain V0. Another” for “And another”, “(25” for “(1”, “25F)” for “1F)”, “7 to 9” for “seven”, “μM (2 μM for MCF-7 cells). Then cells were” for “μM. After”, “hours, before” for “hours,”
# [5] = test system: HT-29 cells; experiment: Cancer cell growth inhibition assay; type: cell-based
# Method: as §4, §5
# as §5, with “Then the viabilities of cancer cells for time 0 were evaluated by CellTiter-Glo™ assay to obtain V0. Another” for “And another”, “(25” for “(1”, “25F)” for “1F)”, “7 to 9” for “seven”, “μM (2 μM for MCF-7 cells). Then cells were” for “μM. After”, “hours, before” for “hours,”
# [6] = test system: A549, MCF-7, SKBR3 and HT-29 cells; experiment: Cancer cell growth inhibition assay, comparison over the cell line panel; type: cell-based; conditions: 20 μM and 2 μM, dose-response studies
# Method: as §4, §5
# as §5, with “Then the viabilities of cancer cells for time 0 were evaluated by CellTiter-Glo™ assay to obtain V0. Another” for “And another”, “(25” for “(1”, “25F)” for “1F)”, “7 to 9” for “seven”, “μM (2 μM for MCF-7 cells). Then cells were” for “μM. After”, “hours, before” for “hours,”
# [7] = test system: A549 cells; experiment: Cancer cell growth inhibition assay; type: cell-based; conditions: Homo sapiens, A549, read-out: IC50 A549 Cells
# Method: as §4, §5
# (§6) Cancer cells were inoculated into a 96-well plate in 100 μL medium at a plating density of 3,000 cells/well. […] Then cells were incubated for 6 days with one change of medium containing test compounds on day 3, before cell viabilities were evaluated by CellTiter-Glo™ Assay to obtain Vcontrol and Vtest. […]
# (§7) Another same plate of cells was inoculated for the evaluation of time 0. […] Then the viabilities of cancer cells for time 0 were evaluated by CellTiter-Glo™ assay to obtain V0. […] Then cells were incubation for 72 hours, before cell viabilities were evaluated by CellTiter-Glo™ assay to obtain Vcontrol and Vtest. […]
# [8] = test system: MCF-7 cells; experiment: Cancer cell growth inhibition assay; type: cell-based; conditions: Homo sapiens, MCF7, read-out: IC50 MCF-7 Cells
# Method: as §4, §5, §6, §7
smiles,measurement,setting,value
"COc1ccc(/C=C\c2cc(OC)c(OC)c(OC)c2)cc1OS(=O)(=O)F [25F, (Z)-2-Methoxy-5-(3,4,5-trimethoxystyryl)phenyl sulfurofluoridate]",microtubule structure of treated cells,[1],completely lost microtubule structure
same,cytotoxicity compared with phenol precursor,[2],significantly stronger
same,increase of cytotoxicity relative to phenol precursor,[3],8%
same,pIC50,[4],8.74
same,pIC50,"[5]; Homo sapiens, HT-29, 72 h, read-out: IC50 HT-29 Cells",7.15
same,fold lower IC50 (increase in potency) versus compound 25 on HT-29,[5]; drug resistant colon cancer cell line HT-29,70 fold
same,activity to inhibit cells at high concentrations compared with parent drug 25,[6],stronger activities
same,pIC50,[7],6.95
same,pIC50,[8],7.81
